This is an account of results in patent US8884011B2, “Nucleotide analogues as precursor molecules for antivirals” (Centre National de la Recherche Scientifique-CNRS, priority 2006, dated 2014).

Data set [1] deals with HBV. Put plainly: Anti-HBV test in infected HepAD38 cells (intracellular viral DNA by Q-PCR). As to conditions: Hepatitis B virus, 144 h; infected HepAD38 cells; 50% reduction of viral DNA; day 6 post-induction. Format: cell-based. The method, then:
These are hepatoma cells that have been stably transfected with a cDNA copy of the pregenomic RNA of wild-type virus. Withdrawal of tetracycline from the culture medium results in the initiation of viral replication. This offers the advantage, in contrast to the Hep G2.2.15 cell lines commonly used, that there is no, or very limited background viral DNA synthesis. Cells were cultured at 37° C. in a humidified 5% CO2/air atmosphere in seeding medium, DMEM/Ham's F12 (50/50) supplemented with 10% (v/v) heat-inactivated fetal calf serum, 100 IU/ml penicillin, 50 μg/ml streptomycin, 100 Ξg/ml kanamycin, 400 μg/ml G418, and 0.3 μg/ml tetracycline. […] After 2-3 days the cultures were induced for viral production by washing with prewarmed PBS and were fed with […] assay medium (seeding medium without tetracycline and G418) with or without the antiviral compounds. Medium was changed after 3 days. The antiviral effect was quantified by measuring levels of intracellular viral DNA at day 6 post-induction, by a real time quantitative PCR (Q-PCR) method. Total cellular DNA was extracted from the cells by means of a commercial kit. […] The reaction was analyzed using a SDS 7000. A plasmid containing the full length insert of the HBV genome was used to prepare the standard curve. The amount of viral DNA produced in treated cultures was expressed as a percentage of the mock treated samples. […] The cytostatic effect of the various compounds was assessed employing the parent hepatoma cell line HepG2. The effect of the compounds on exponentially growing HepG2 cells was evaluated by means of the MTS method. Briefly, cells were seeded at a density of 3000/well (96 well plate) and were allowed to proliferate for 3 days in the absence or presence of compounds after which the optical density was measured with a 96-well plate reader and cell density was determined.

The test system of data set [2] is HBV. Put plainly: Anti-HBV test in infected Huh7 cells. Format: cell-based. Conditions: Hepatitis B virus, Huh-7, read-out: EC50 (μM) HBV.
A further data set deals with HIV-1 (IIIB). Kind of data set: Anti-HIV test in CEM cell cultures, syncytium formation, HIV-1 (IIIB). As to conditions: Human immunodeficiency virus 1, IIIB, CCRF-CEM, read-out: EC50 (μM) HIV-1. Format: cell-based. The method, then: Briefly, CEM cells (4.5×10^5 cells per ml) were suspended in fresh culture medium and infected with HIV-1 at 100 CCID50 per ml of cell suspension. Then, 100 μl of the infected cell suspension were transferred to microplate wells, mixed with 100 μl of the appropriate dilutions of the test compounds, and further incubated at 37° C. After 4 to 5 days, giant cell formation was recorded microscopically in the CEM cell cultures.

Another data set concerns HIV-2 (ROD). Kind of data set: Anti-HIV test in CEM cell cultures, syncytium formation, HIV-2 (ROD). Conditions: Human immunodeficiency virus 2, CCRF-CEM, read-out: EC50 (μM) HIV-2. Format: cell-based.
A short description of data set [3]: Cytotoxicity in CEM cell cultures (cell density). Format: cell-based. Conditions: human, 50% reduction in cell density, read-out: TC50 (the source's name).
Another data set concerns HIV-1-LAI. Put plainly: Anti-HIV test in CMSP cultures infected by HIV-1-LAI (RT activity in supernatants). Format: cell-based. As to conditions: Human immunodeficiency virus 1, 168 h, read-out: EC50 (μM) HIV-1 (LAI).
The test system of data set [4] is vesicular stomatitis virus. Put plainly: microbe, parasite or virus in culture. Format: cell-based. Conditions: HEL, read-out: in vitro antiviral activity (EC50), none up to.
The subject of another data set is Coxsackie B4. Put plainly: Virus panel, CPE assay: Coxsackie B4 virus in Hela and Vero cells. Conditions: Enterovirus B, read-out: in vitro antiviral activity (EC50), none up to. Format: cell-based.
For data set [5], the system named is respiratory syncytial virus. Kind of data set: Virus panel, CPE assay: respiratory syncytial virus in Hela cells. Format: cell-based. Conditions: human respiratory syncytial virus, read-out: in vitro antiviral activity (EC50), none up to.
A further data set has as its system influenza A (H1N1). Put plainly: Virus panel: influenza A (H1N1) in MDCK cells. Format: cell-based. Conditions: read-out: in vitro antiviral activity (EC50), none up to. From the text:
(§1) influenza A (H1N1), influenza A (H3N2), influenza B, in MDCK cells;

For a further data set, the system named is influenza A (H3N2). Put plainly: Virus panel: influenza A (H3N2) in MDCK cells. As to conditions: read-out: in vitro antiviral activity (EC50), none up to. Format: cell-based.
From the text: as §1

For a further data set, the system named is influenza B. Kind of data set: Virus panel: influenza B in MDCK cells. As to conditions: read-out: in vitro antiviral activity (EC50), none up to. Format: cell-based.
From the text: as §1

The subject of the next data set is Parainfluenza-3-virus. Kind of data set: Virus panel, CPE assay: Parainfluenza-3-virus in Vero cells. Format: cell-based. Conditions: read-out: in vitro antiviral activity (EC50), none up to.
Another data set concerns Reovirus-1. Kind of data set: Virus panel, CPE assay: Reovirus-1 in Vero cells. Format: cell-based. As to conditions: Reovirus-1, Vero cells; read-out: in vitro antiviral activity (EC50), none up to.
A further data set has as its system Sindbis virus. Kind of data set: Virus panel, CPE assay: Sindbis virus in Vero cells. Format: cell-based. As to conditions: read-out: in vitro antiviral activity (EC50), none up to.
The subject of another data set is Punta Toro virus. Put plainly: Virus panel, CPE assay: Punta Toro virus in Vero cells. Format: cell-based. As to conditions: read-out: in vitro antiviral activity (EC50), none up to.
Another data set relates to Feline Herpes virus. Put plainly: Virus panel: Feline Herpes virus in CRFK cells. Format: cell-based. The text has this: Feline Corona virus and Feline Herpes virus in CRFK cells.
Data set [6] has as its system Herpes simplex virus-2 (G). Put plainly: Virus panel, CPE assay: Herpes simplex virus-2 (G) in HEL cells. Format: cell-based. Conditions: Human alphaherpesvirus 2.
Data set [7] can be described thus: Stability in complete medium (RPMI 1640 containing 10% heat-inactivated fetal calf serum), HPLC. Format: in vitro ADME. Conditions: for half-life at 0.1 mM: bovine, serum, initial concentration 0.1 mM, read-out: t1/2 complete medium; for half-life at 0.1 mM / product intact: 37° C.; for product intact: complete medium, degradation into the phosphonate; for degradation: culture medium. The method, then: (§2) Media and preparation of cell extracts. Culture medium was composed by RPMI 1640 containing 10% (v/v) heat-inactivated fetal calf serum and stored at −80° C. CEM-SS cell extracts were prepared according to a published procedure (Puech, F. et al. Antiv. Res. 1993, 22, 155-174). Exponentially growing CEM-SS cells were recovered by centrifugation (500 g, 4° C., 4 min), washed twice with PBS and resuspended in 10 mM Tris-HCl, 140 mM KCl (pH 7.4), at the concentration of 30×10^6 cells/mL. Cells were lyzed by ultrasonic treatment and cellular debris were removed by centrifugation (10000 g, 4° C., 20 min). The supernatant containing soluble proteins (3 mg/mL) was stored at −80° C.
Kinetic data and decomposition pathways for compounds 6 and 11 were studied at 37° C. (a) in complete medium (RPMI 1640 containing 10% heat-inactivated fetal calf serum (b) in total cells extracts (CEM-SS). For each kinetic study, the compound solution was diluted with a freshly thawed aliquot of the considered medium to obtain an initial concentration of 0.1 mM. The mixture was incubated at 37° C. and for the required time, an aliquot (10% solution) was taken and immediately frozen at −80° C. for further HPLC analysis. The crude sample was injected into the precolumn and eluted with buffer A during 5 min. Then, the switching valve for connecting the precolumn to the column was activated, and a linear gradient from buffer A to buffer B, increasing buffer B from 0% at 0 min to 20% at 40 min is applied. The retention times were 6, 26 min; 11, 29.5 min, PMEA, 24.3 min and (R)-PMPA, 27.8 min.
All the compounds were analyzed under the same conditions. The amount of remaining parent compound at each time point was used to determine the half-life of the compound. The product of degradation from parent compound was determined by comparison with corresponding references.

Data set [8] is described as follows: Stability in total cell extracts (CEM-SS), HPLC. Format: in vitro ADME. As to conditions: 37° C., 0.1 mM. The procedure: as §2
Kinetic data and decomposition pathways for compounds 6 and 11 were studied at 37° C. […]
All the compounds were analyzed under the same conditions. […] The product of degradation from parent compound was determined by comparison with corresponding references.

The nature of data set [9]: Cytotoxicity by MTT test in cultures of uninfected CMSP. Conditions: human.
Data set [10] in a line: Cytostatic effect on parent hepatoma cell line HepG2 (MTS method). As to conditions: human.
The test system of the next data set is CMSP (uninfected cells). Kind of data set: Cytotoxicity by MTT test in cultures of uninfected CMSP. As to conditions: text statement to Table VII.

Molecules are shown by their SMILES. Some results are limits rather than exact numbers.

Consider `Nc1ncnc2c1ncn2CCOCP(=O)(O)S` (centres unmarked) [Compound 6, 9-[2-(thiophosphonomethoxy)ethyl]adenine], for which the concentration for a half-maximal effect (EC50) in the data set with HBV [1] is 9.6 µM; in the data set with HBV [2] it was 4.5 µM; in the data set with HIV-1 (IIIB) it was 12.2 µM; in the data set with HIV-2 (ROD) it was 10.4 µM; in the data set with HIV-1-LAI, 7 µM; in [4], greater than 200 µM. In addition, the EC50 (with Coxsackie B4; in [5]; in the data set on influenza A (H1N1); in the data set on influenza A (H3N2); with influenza B; in the data set with Parainfluenza-3-virus) was greater than 200 µM in each case. Besides, the EC50 is greater than 200 µM in the data set on Reovirus-1; greater than 200 µM with Sindbis virus; greater than 200 µM in the data set on Punta Toro virus; 38 µM with Feline Herpes virus; 58 µM in data set [6]. Besides, the CC50 in [3] was greater than 332 µM. For the same molecule, the half-life at 0.1 mM in [7] was greater than 24 h. Further, in data set [7], the product intact result is listed as “^a: product 80% intact (degradation into PMEA)”. This molecule also returned a degradation in data set [7] of 20%. In addition, the t1/2 cell extracts entry in data set [8] is “stable^c”. This molecule also gave a CC50 at 7 days in data set [9] greater than 42 µM. Moreover, the CC50 at 3 days in [10] was greater than 166 µM.
In the case of `C[C@H](Cn1cnc2c(N)ncnc21)OCP(=O)(O)S` (stereo partly drawn) [Compound 11, (R)-9-[2-(thiophosphonomethoxy)propyl]adenine], the EC50 in the data set on HBV [1] is 2.26 µM; in the data set on HBV [2] it was 5 µM; in the data set with HIV-1 (IIIB), 11.1 µM; in the data set on HIV-2 (ROD), 8.6 µM; with HIV-1-LAI, 1.6 µM; in data set [4] it was greater than 200 µM. In addition, the EC50 (in the data set with Coxsackie B4; in data set [5]; in the data set on influenza A (H1N1); in the data set on influenza A (H3N2); in the data set on influenza B; in the data set with Parainfluenza-3-virus) was greater than 200 µM each time. In addition, the EC50 in the data set on Reovirus-1, in the data set on Sindbis virus and with Punta Toro virus was greater than 200 µM in each case. Moreover, the CC50 in [3] is greater than 165 µM. The half-life at 0.1 mM in data set [7] is greater than 24 h. In addition, the product intact result in data set [7] is “^b: product 77% intact (degradation into PMPA)”. The degradation in [7] amounted to 20%. The t1/2 cell extracts entry in [8] is listed as “stable^c”. The CC50 at 7 days in data set [9] was greater than 100 µM. In addition, the “not cytotoxic (highest concentration tested)” value with CMSP (uninfected cells) is greater than 200 µM. For the same molecule, the CC50 at 3 days in data set [10] was greater than 174 µM.
